Patent US9642819B2, “Low dosage serotonin 5-HT2A receptor agonist to suppress inflammation” (BOARD OF SUPERVISORS OF LOUISIANA STATE UNIVERSITY AND …, priority 2008, dated 2017)
Entries after “also recorded” stand apart in the source; their conditions may differ. Read-outs that look alike come from different tables or passages of the source.

How the values were obtained:
ICAM-1 gene expression [1] = assay: LPS stimulated ICAM-1 gene expression in primary rat aortic smooth muscle cells; format: cell-based; settings: 60 minute pretreatment, 100 nM
Procedure: All treatments with 5-HT2A receptor agonists occurred 1 hour prior to the addition of TNF-alpha (10 ng/ml) or LPS (100 ng or […]) depending on the experiment. All RNA isolations, cDNA synthesis, QPCR gene expression assays examining ICAM1, VCAM1, and IL6, and data analysis were performed as described above in Example 1, except the primers were different for the human cell experiment. The human gene PCR primer sequences and universal probe numbers were as follows: cyclophillin (control amplicon; Probe U64): forward primer, 5′-[…]-3′ (SEQ ID NO: 11), reverse primer, 5′-[…]-3′ (SEQ ID NO: 12); and human ICAM-1 (Probe U71, intracellular adhesion molecule 1): forward primer, 5′-[…]-3′ (SEQ ID NO: 13), reverse primer, 5′-[…]-3′ (SEQ ID NO: 14).
The effect of (R)-DOI (60 minute pretreatment) on the expression of ICAM-1 in primary rat aortic smooth muscle cells after stimulation with LPS was examined. […] At a higher dose of LPS (1 μg), there was no effect of (R)-DOI on the increase in ICAM-1.

5-HT2A receptor = 5-HT2A receptor (Rattus norvegicus, UniProt P14842); settings: read-out: EC50 phosphoinositide turnover; standard pharmacological assay of 5-HT2A receptor activity; cited from earlier work
Sequence of 5-HT2A receptor (P14842 whole entry): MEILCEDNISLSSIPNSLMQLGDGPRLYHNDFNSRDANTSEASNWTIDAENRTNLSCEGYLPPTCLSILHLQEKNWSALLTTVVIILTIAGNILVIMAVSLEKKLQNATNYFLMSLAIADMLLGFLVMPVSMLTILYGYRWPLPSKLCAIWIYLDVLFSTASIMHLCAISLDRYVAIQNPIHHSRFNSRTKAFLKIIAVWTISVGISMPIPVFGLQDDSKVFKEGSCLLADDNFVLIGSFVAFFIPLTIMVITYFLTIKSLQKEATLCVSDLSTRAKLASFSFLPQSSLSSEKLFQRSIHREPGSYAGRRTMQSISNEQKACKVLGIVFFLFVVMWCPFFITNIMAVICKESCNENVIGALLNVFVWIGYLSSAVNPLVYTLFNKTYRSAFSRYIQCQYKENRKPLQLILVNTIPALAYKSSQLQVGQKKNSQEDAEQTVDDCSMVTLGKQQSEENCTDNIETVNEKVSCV

VCAM-1 gene expression = assay: TNF-α induced VCAM-1 gene expression in rat primary aortic endothelial cells; format: cell-based; settings: 10 pM, 60 minutes prior to TNF-alpha 10 ng/ml
Procedure: (§1) Experiments were conducted to analyze for the effect of 5-HT2A receptor activation on proinflammatory marker expression in other cell types. Human neuroblastoma cells (SHSY5Y) and rat glioma cells (C6) can be obtained from the American Type Culture Collection (Manassas, Va.), but were provided Purdue University. The cells were grown in DMEM+10% FBS. DMEM was made and provided by the Cell and Molecular Core of the Mentoring in Cardiovascular Biology COBRE center at LSUHSC-NO. FBS was purchased from Invitrogen (Carlsbad, Calif.). Primary rat aortic endothelial cells were prepared fresh and provided by the Cell and Molecular Core of the Mentoring in Cardiovascular Biology COBRE center at LSUHSC-NO. Cells were tested at passages 3-4. Cells were grown in endothelial cell growth medium (Cell Applications, Inc.). Primary rat bronchoaveolar macrophage cells were obtained by lung lavage from rats and used at day 3 or 4 post plating in DMEM+10% FBS.
(§2) All treatments with 5-HT2A receptor agonists occurred 1 hour prior to the addition of TNF-alpha (10 ng/ml) or LPS (100 ng or 1 mg) depending on the experiment. All RNA isolations, cDNA synthesis, QPCR gene expression assays examining ICAM1, VCAM1, and IL6, and data analysis were performed as described above in Example 1, except the primers were different for the human cell experiment. […]

[2] = test system: ICAM-1, VCAM-1, and IL-6 gene expression; assay: TNF-α induced proinflammatory gene expression (ICAM-1, VCAM-1, IL-6) by Q-RT-PCR in RASM cells; format: cell-based, rat
Procedure: (§3) RASM cells and treatment. Rat aortic smooth muscle (RASM) cells were isolated from adult 180 g male Sprague-Dawley rats and provided by the Cell and Molecular Core Facility in the Department of Pharmacology at LSUHSC-NO. Isolated RASM cells were grown in M-199 media containing 10% fetal bovine serum (Gibco), 100 units/mL penicillin, and 100 µg/mL streptomycin, and incubated at 37° C. in 5% CO2. Cells for all assays were used between passages 3 and 5. Prior to treatments, cells were grown in M-199 media with 10% fetal bovine serum (FBS) until 30-50% confluent. For most assays, cells were treated with (R)-DOI, or other drugs as indicated, at specific concentrations for 24 hours, followed by TNF-α (10 ng/ml) and (R)-DOI at the same pretreatment concentrations in fresh M-199 media. After another 24 hours, the cells were scraped, pelleted, and processed for RNA.
(§4) RNA isolation and Quantitative Realtime-PCR. RNA was extracted from cells using Illustra RNAspin Mini kits from GE Healthcare Life Sciences (Piscataway, N.J.) following protocols supplied by the manufacturer. First strand cDNA was generated using the ImProm-II cDNA synthesis kit (Promega) following the manufacturers protocols. Q-RT-PCR was performed using the ProbeLibrary system from Roche (Indianapolis, Ind.) in combination with the HotStart-IT probe qpcr master mix from USB Biological (Cleveland, Ohio) following manufactures protocols.
(§5) Primers were synthesized by IDT (Coralville, Iowa). ProbeLibrary probes from Roche were: U3, U74, U13, U106, U79 for 5-HT2AR, ICAM-1, VCAM-1, IL-6, and cyclophillin B, respectively. Quantitative determination of gene expression levels using a 2-step cycling protocol was performed on a MyIQ-5 Cycler (Bio-Rad, Hercules Calif.). Relative gene expression levels were calculated using the 2^[−ΔΔC(T)] method. Levels of all targets from the test samples were normalized to rat cyclophillin B expression.
(§6) To examine the effects of 5-HT2A receptor activation on TNF-α mediated proinflammatory gene expression, RASM cells were pretreated with (R)-DOI, a selective 5-HT2 receptor agonist, as described above. Dose-response curves were determined for the effects on ICAM-1, VCAM-1, and IL-6 gene expression for twelve different concentrations of (R)-DOI ranging from 0.1 pM to 100 nM, with each experiment repeated in triplicate. In FIGS. 1A-1C, the Y-axis represents a percent of TNF-α for the dose of (R)-DOI indicated on the X-axis.

ICAM-1 gene expression [3] = assay: TNF-α induced ICAM-1 gene expression in primary rat aortic smooth muscle cells; format: cell-based; settings: for IC50: Rattus norvegicus
Procedure: as §3, §4, §5, §6

IL-6 expression = assay: TNF-α induced IL-6 expression in rat primary aortic endothelial cells; format: cell-based; settings: 10 pM, 60 minutes prior to TNF-alpha 10 ng/ml
Procedure: as §1, §2

COc1cc(C[C@@H](C)N)c(OC)cc1I [(R)-DOI, (R)-1-(2,5-dimethoxy-4-iodophenyl)-2-aminopropane]
effect on ICAM-1 induction by low dose of LPS (ICAM-1 gene expression [1]; LPS 100 ng): able to block the response
effect on ICAM-1 increase by higher dose of LPS (ICAM-1 gene expression [1]; LPS 1 μg): no effect
EC50 (5-HT2A receptor): 10 to 20 nM
effect on TNF-alpha induced increase in VCAM-1 gene expression in aortic endothelial cells (VCAM-1 gene expression): less potent
effect of pretreatment on TNF-α induced increase in proinflammatory gene expression ([2]; 1 nM prior to TNF-α 10 ng/ml): completely blocked; also recorded: completely inhibits
IC50 ([2]; RASM cells, TNF-α 10 ng/ml, ICAM-1, VCAM-1, IL-6, read-out: IC50 for inhibition of TNF-α mediated proinflammatory markers): 0.01 to 0.02 nM
IC50 ([2]; Rattus norvegicus, RASM cells, TNF-α 10 ng/ml, ICAM-1, VCAM-1, IL-6, read-out: IC50 for inhibition of TNF-α mediated proinflammatory markers): ~0.02 nM
IC50 ([2]; Rattus norvegicus, read-out: IC50 in blocking TNF-α mediated inflammation): ~0.02 nM
potency of inhibiting inflammatory marker gene expression relative to any current drug on the market ([2]; greater): at least 100 times
potency relative to the more effective current anti-inflammatory agents ([2]; more potent): ~300 fold
effect of compound alone on baseline expression of ICAM-1, VCAM-1, IL-6 ([2]; without TNF-α, 1 nM): no effect
block of TNF-α induced ICAM1 gene expression at 1 nM (ICAM-1 gene expression [3]; 1 nM pretreatment, VCAM1 and IL6 identical): blocked gene expression
block of TNF-α effect on ICAM-1 expression with 24 hour and one hour pretreatments and simultaneous treatment (ICAM-1 gene expression [3]; 1 nM, TNF-α 10 ng/ml): completely blocked
IC50 (ICAM-1 gene expression [3]; RASM passage 4, media with FBS, 24 h pretreatment, TNF-α 10 ng/ml, read-out: IC50 for proinflammatory gene expression inhibition for ICAM-1): 0.0195 nM
IC50 (ICAM-1 gene expression [3]; RASM passage 4, serum starved for 8 hours, read-out: IC50 for ICAM-1 gene expression inhibition in serum-free media): 0.36 nM
effect on TNF-α-induced IL-6 expression in aortic endothelial cells (IL-6 expression): potently inhibited
